According to patent publication US10441588B2, “Methods and compositions for treating bacterial infection” (Curators of the University of Missouri, priority 2012, dated 2019):
Structures can show the parent of a compound that is named as a salt. Where two headings read alike, the source gives them in different places.

What was measured:
S. aureus biofilm = S. aureus biofilm inhibition, optical density, test/control; type: cell-based, Staphylococcus aureus; conditions: Staphylococcus aureus, growth of biofilm test/control by optical density
S. aureus = S. aureus growth inhibition, optical density, test/control; type: cell-based, Staphylococcus aureus; conditions: Staphylococcus aureus, growth of bacteria test/control by optical density
[1] = 50 μM, read-out: S. aureus Biofilm Inhibition 50 μM vs. (−) Control
[2] = 5 μM, read-out: S. aureus Biofilm Inhibition 5 μM vs. (−) Control

C=CCn1c(SCc2cccc(OC)c2)nc2c(c1=O)C1(CCCCC1)Cc1ccccc1-2 [CCG-102485]
activity at 100 µM (S. aureus biofilm): 49.5%
activity at 100 µM (S. aureus): 114%

C=CCn1c(SCc2ccc(NC(C)=O)cc2)nc2c(c1=O)C1(CCCCC1)Cc1ccccc1-2 [CCG-102491]
activity at 100 µM (S. aureus biofilm): 75%
activity at 100 µM (S. aureus): 84.8%

C=CCn1c(SCCOC)nc2c(c1=O)C1(CCCCC1)Cc1ccccc1-2 [CCG-102493]
activity at 100 µM (S. aureus biofilm): 66%
activity at 100 µM (S. aureus): 72.1%

C=CCn1c(SCCN(C)C)nc2c(c1=O)C1(CCCCC1)Cc1ccccc1-2 [CCG-102495]
activity at 100 µM (S. aureus biofilm): 78.9%
activity at 100 µM (S. aureus): 93%

C=CCn1c(SC)nc2c(c1=O)C1(CCCCC1)Cc1ccccc1-2 [CCG-102620]
activity at 100 µM (S. aureus biofilm): 76.5%
activity at 100 µM (S. aureus): 95.3%

C=CCn1c(OCC)nc2c(c1=O)C1(CCCCC1)Cc1ccccc1-2 [CCG-102622]
activity at 100 µM (S. aureus biofilm): 68.6%
activity at 100 µM (S. aureus): 77.7%

C=CCn1c(SCc2ccccn2)nc2c(c1=O)C(C)(C)Cc1ccccc1-2 [CCG-203039]
activity at 100 µM (S. aureus biofilm): 71%
activity at 100 µM (S. aureus): 95.9%

C=CCn1c(SCCO)nc2c(c1=O)C(C)(C)Cc1ccccc1-2 [CCG-203041]
activity at 100 µM (S. aureus biofilm): 47.7%
activity at 100 µM (S. aureus): 89.7%

C=CCn1c(SCCOC)nc2c(c1=O)CC(C)c1ccccc1-2 (centres unmarked) [CCG-203574]
activity at 100 µM (S. aureus biofilm): 46.5%
activity at 100 µM (S. aureus): 73.8%

CCn1c(SCCOC)nc2c(c1=O)C(C)(C)Cc1ccccc1-2 [CCG-203598]
activity at 100 µM (S. aureus biofilm): 61%
activity at 100 µM (S. aureus): 85.5%

C=CCn1c(SCC)nc2c(c1=O)C(C)(C)Cc1ccc(OC)cc1-2 [CCG-203625]
activity at 10 µM (S. aureus biofilm): 51.3%

COCCSc1nc(OCC2OCCO2)c2c(n1)-c1ccccc1CC2(C)C [CCG-203627]
activity at 100 µM (S. aureus biofilm): 49.6%
activity at 100 µM (S. aureus): 80.6%

C=CCn1c(SCC)nc2c(c1=O)C(C)(C)Cc1c(OC)cccc1-2 [CCG-203629]
activity at 100 µM (S. aureus biofilm): 35.1%
activity at 100 µM (S. aureus): 66.7%

C=CCn1c(SCC)nc2c(c1=O)C(C)(C)Cc1c(O)cccc1-2 [CCG-203631]
activity at 100 µM (S. aureus biofilm): 31.1%
activity at 100 µM (S. aureus): 76.7%

C=CCn1c(SCC)nc2c(c1=O)C(C)(C)Cc1c(OCCOC)cccc1-2 [CCG-203633]
activity at 100 µM (S. aureus biofilm): 54%
activity at 100 µM (S. aureus): 76.2%

CCSc1nc2c(c(=O)n1CCOC)C(C)(C)Cc1ccccc1-2 [CCG-203802, 2-(ethylthio)-3-(2-methoxyethyl)-5,5-dimethyl-5,6-dihydrobenzo[h]quinazolin-4(3H)-one]
activity at 100 µM (S. aureus biofilm): 55.7%
activity at 100 µM (S. aureus): 67.7%

C=CCn1c(OCC)nc2c(c1=O)C(C)(C)Cc1ccccc1-2 [CCG-203803]
activity at 100 µM (S. aureus biofilm): 76.8%
activity at 100 µM (S. aureus): 81.9%

COCCSc1nc2c(c(=O)n1CCOc1ccc(F)cc1)C(C)(C)Cc1ccccc1-2 [CCG-204027, 3-(2-(4-Fluorophenoxy)ethyl)-2-((2-methoxyethyl)thio)-5,5-dimethyl-5,6-dihydrobenzo-[h]quinazolin-4(3H)-one]
activity at 100 µM (S. aureus biofilm): 74.8%
activity at 100 µM (S. aureus): 108%

COCCSc1nc(OCCOc2ccc(F)cc2)c2c(n1)-c1ccccc1CC2(C)C [CCG-204028, 4-(2-(4-Fluorophenoxy)ethoxy)-2-((2-methoxyethyl)thio)-5,5-dimethyl-5,6-dihydrobenzo[h]-quinazoline]
activity at 100 µM (S. aureus biofilm): 70%
activity at 100 µM (S. aureus): 113%

COCCSc1nc2c(c(=O)n1CC1OCCO1)C(C)(C)Cc1ccccc1-2 [CCG-204029, 3-((1,3-Dioxolan-2-yl)methyl)-2-((2-methoxyethyl)thio)-5,5-dimethyl-5,6-dihydrobenzo[h]-quinazolin-4(3H)-one]
activity at 100 µM (S. aureus biofilm): 63.6%
activity at 100 µM (S. aureus): 94.3%

COCCSc1nc2c(c(=O)n1CCCC#N)C(C)(C)Cc1ccccc1-2 [CCG-204031, 4-(2-((2-Methoxyethyl)thio)-5,5-dimethyl-4-oxo-5,6-dihydrobenzo[h]quinazolin-3(4H)-yl)butanenitrile]
activity at 100 µM (S. aureus biofilm): 59.2%
activity at 100 µM (S. aureus): 98.5%

COCCSc1nc2c(c(=O)n1Cc1ccc(OC)cc1)C(C)(C)Cc1ccccc1-2 [CCG-204036, 3-(4-Methoxybenzyl)-2-((2-methoxyethyl)thio)-5,5-dimethyl-5,6-dihydrobenzo[h]quin-azolin-4(3H)-one]
activity at 100 µM (S. aureus biofilm): 76.5%
activity at 100 µM (S. aureus): 112%

COCCSc1nc(OCc2ccc(OC)cc2)c2c(n1)-c1ccccc1CC2(C)C [CCG-204037, 4-((4-Methoxybenzyl)oxy)-2-((2-methoxyethyl)thio)-5,5-dimethyl-5,6-dihydrobenzo[h]-quinazoline]
activity at 100 µM (S. aureus biofilm): 65.7%
activity at 100 µM (S. aureus): 110%

COCCSc1nc(OCC(=O)c2ccc(F)c(F)c2)c2c(n1)-c1ccccc1CC2(C)C [CCG-204040, 1-(3,4-Difluorophenyl)-2-((2-((2-methoxyethyl)thio)-5,5-dimethyl-5,6-dihydrobenzo[h]-quinazolin-4-yl)oxy)ethanone]
activity at 100 µM (S. aureus biofilm): 65.9%
activity at 100 µM (S. aureus): 119%

C=CCn1c(SCCOC)nc2c(c1=O)C(C)(C)Cc1cnccc1-2 [CCG-204041, 3-allyl-2-((2-methoxyethyl)thio)-5,5-dimethyl-5,6-dihydropyrido[3,4-h]quinazolin-4(3H)-one]
activity at 100 µM (S. aureus biofilm): 75.7%
activity at 100 µM (S. aureus): 90.2%

C=CCn1c(SCC)nc2c(c1=O)C(C)(C)Cc1cc(OCC(=O)O)ccc1-2 [CCG-205434]
activity at 100 µM (S. aureus biofilm): 32.5%

C=CCn1c(SCCOC)nc2c(c1=O)C1(CCN(C(=O)OCC)CC1)Cc1ccccc1-2 [CCG-206233, Ethyl 3-allyl-2-((2-methoxyethyl)thio)-4-oxo-4,6-dihydro-3H-spiro[benzo[h]quinazoline-5,4′-piperidine]-1′-carboxylate]
activity at 50 µM (S. aureus biofilm; [1]): 59.4%

C=CCOc1nc(SCC)nc2c1C(C)(C)Cc1ccc(OC)cc1-2 [CCG-206358]
activity at 10 µM (S. aureus biofilm): 55.7%
activity at 100 µM (S. aureus biofilm): 70%

C=CCOc1nc(SCCOC)nc2c1C1(CCN(C(=O)CCCC)CC1)Cc1cc(OC)ccc1-2 [CCG-208863, 1-(4-(allyloxy)-8-methoxy-2-((2-methoxyethyl)thio)-6H-spiro[benzo[h]quinazoline-5,4′-piperidin]-1′-yl)pentan-1-one]
activity at 5 µM (S. aureus biofilm; [2]): 72.1%
activity at 50 µM (S. aureus biofilm; [1]): 68.6%

C=CCn1c(SCCOC)nc2c(c1=O)C1(CCN(C(=O)OC(C)(C)C)C1)Cc1cc(OC)ccc1-2 (centres unmarked) [CCG-208864, tert-butyl 3-allyl-8-methoxy-2-((2-methoxyethyl)thio)-4-oxo-4,6-dihydro-3H-spiro[benzo[h]quinazoline-5,3′-pyrrolidine]-1′-carboxylate]
activity at 5 µM (S. aureus biofilm; [2]): 49.5%
activity at 50 µM (S. aureus biofilm; [1]): 49.1%

C=CCn1c(SCCOC)nc2c(c1=O)C1(CCNC1)Cc1cc(OC)ccc1-2 (centres unmarked) [CCG-208865, 3-allyl-8-methoxy-2-((2-methoxyethyl)thio)-3H-spiro[benzo[h]quinazoline-5,3′-pyrrolidine]-4(6H)-one hydrochloride]
activity at 5 µM (S. aureus biofilm; read-out: S. aureus Biofilm Inhibition 5 μM vs. (−) Control, 5 μM): 80.3%
activity at 50 µM (S. aureus biofilm; read-out: S. aureus Biofilm Inhibition 50 μM vs. (−) Control, 50 μM): 65.2%

C=CCn1c(SCCOC)nc2c(c1=O)C1(CCN(C)CC1)Cc1cc(OC)ccc1-2 [CCG-208981, 3-allyl-8-methoxy-2-((2-methoxyethyl)thio)-1′-methyl-3H-spiro[benzo[h]quinazoline-5,4′-piperidin]-4(6H)-one]
activity at 5 µM (S. aureus biofilm; [2]): 88.5%
activity at 50 µM (S. aureus biofilm; [1]): 70.6%

CCSc1nc(OC)c2c(n1)-c1cc(OC)ccc1CC2(C)C [CCG-211793, 2-(ethylthio)-4,9-dimethoxy-5,5-dimethyl-5,6-dihydrobenzo[h]quinazoline]
activity at 5 µM (S. aureus biofilm; [2]): 122%
activity at 50 µM (S. aureus biofilm; [1]): 72.2%

COc1ccc2c(c1)CC1(CCN(C(=O)OC(C)(C)C)CC1)c1c(OC)nc(SCC#N)nc1-2 [CCG-211810, tert-butyl 2-((cyanomethyl)thio)-4,8-dimethoxy-6H-spiro[benzo[h]quinazoline-5,4′-piperidine]-1′-carboxylate]
activity at 5 µM (S. aureus biofilm; [2]): 68.2%
activity at 50 µM (S. aureus biofilm; [1]): 75%

COc1ccc2c(c1)CC1(CCN(C(=O)OC(C)(C)C)CC1)c1c-2nc(SCC#N)n(C)c1=O [CCG-211811, tert-butyl 2-((cyanomethyl)thio)-8-methoxy-3-methyl-4-oxo-4,6-dihydro-3H-spiro[benzo[h]quinazoline-5,4′-piperidine]-1′-carboxylate]
activity at 5 µM (S. aureus biofilm; [2]): 67.8%
activity at 50 µM (S. aureus biofilm; [1]): 70.2%

COc1ccc2c(c1)CC1(CCN(C(=O)OC(C)(C)C)CC1)c1c(OCC#N)nc(SCC#N)nc1-2 [CCG-211812, tert-butyl 4-(cyanomethoxy)-2-((cyanomethyl)thio)-8-methoxy-6H-spiro[benzo[h]quinazoline-5,4′-piperidine]-1′-carboxylate]
activity at 5 µM (S. aureus biofilm; [2]): 75.2%
activity at 50 µM (S. aureus biofilm; [1]): 75%

C=CCn1c(SCCOC)nc2c(c1=O)C1(CCN(C(=O)NCC(=O)OCC)CC1)Cc1cc(OC)ccc1-2 [CCG-211972, ethyl (3-allyl-8-methoxy-2-((2-methoxyethyl)thio)-4-oxo-4,6-dihydro-3H-spiro[benzo[h]quinazoline-5,4′-piperidine]-1′-carbonyl)glycinate]
activity at 5 µM (S. aureus biofilm; [2]): 125%
activity at 50 µM (S. aureus biofilm; [1]): 68%

C=CCOc1nc(SCC#N)nc2c1C(C)(C)Cc1ccc(OC)cc1-2 [CCG-212010, 2-((4-(allyloxy)-9-methoxy-5,5-dimethyl-5,6-dihydrobenzo[h]quinazolin-2-yl)thio)acetonitrile]
activity at 5 µM (S. aureus biofilm; [2]): 55%
activity at 50 µM (S. aureus biofilm; [1]): 35%

COc1ccc2c(c1)-c1nc(SCC#N)nc(OCC#N)c1C(C)(C)C2 [CCG-212011, 2-((4-(cyanomethoxy)-9-methoxy-5,5-dimethyl-5,6-dihydrobenzo[h]quinazolin-2-yl)thio)acetonitrile]
activity at 5 µM (S. aureus biofilm; [2]): 48%
activity at 50 µM (S. aureus biofilm; [1]): 29%

COc1ccc2c(c1)-c1nc(SCC#N)n(CC#N)c(=O)c1C(C)(C)C2 [CCG-212012, 2-((3-(cyanomethyl)-9-methoxy-5,5-dimethyl-4-oxo-3,4,5,6-tetrahydrobenzo[h]quinazolin-2-yl)thio)acetonitrile]
activity at 5 µM (S. aureus biofilm; [2]): 55%
activity at 50 µM (S. aureus biofilm; [1]): 27%
